Laboratory results as given in patent publication US10233186B2, “Inhibitors of activin receptor-like kinase” (BLUEPRINT MEDICINES CORPORATION, priority 2016, dated 2019).
Read-outs that look alike come from different tables or passages of the source.

Assays:
human ALK2 R206H = target: T1, human ALK2 R206H (Homo sapiens, UniProt Q04771, R206H); assay: Cell-based ALK2-R206H cell activity assay (Smad1-Ser463/Ser465 phosphorylation by AlphaLISA in HEK293-ALK2-R206H cells)
T1 construct: expressed in transfected cells; host or cells: HEK293 (ATCC CRL1573), lentivirus transduction, blasticidin selection
T1 sequence (Q04771 21-509 R206H): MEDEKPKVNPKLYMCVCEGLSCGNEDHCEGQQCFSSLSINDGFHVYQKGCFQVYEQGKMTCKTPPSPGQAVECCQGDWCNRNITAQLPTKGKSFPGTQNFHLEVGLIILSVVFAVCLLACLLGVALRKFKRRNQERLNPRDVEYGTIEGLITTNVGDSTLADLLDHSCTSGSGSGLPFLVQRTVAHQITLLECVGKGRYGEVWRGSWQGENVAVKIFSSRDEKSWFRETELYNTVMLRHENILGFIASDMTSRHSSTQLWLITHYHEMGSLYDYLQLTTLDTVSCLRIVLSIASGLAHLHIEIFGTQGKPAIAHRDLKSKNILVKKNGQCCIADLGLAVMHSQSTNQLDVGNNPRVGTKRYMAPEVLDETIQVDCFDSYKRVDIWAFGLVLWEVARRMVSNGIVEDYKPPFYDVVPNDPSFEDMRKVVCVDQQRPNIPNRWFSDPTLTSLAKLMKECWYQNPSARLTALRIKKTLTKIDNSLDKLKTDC
Procedure, shortened: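 Stable HEK293 cells expressing C-terminally FLAG-tagged human ALK2 R206H (lentiviral, blasticidin-selected) were treated with compounds in 10-point, 3-fold dilutions from 10 μM or 1 μM top, in duplicate. Smad1 Ser463/Ser465 phosphorylation was read by AlphaLISA.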

[1] = target: T2, ALK2 R206H (GST-tagged mutant ALK2) (Homo sapiens, UniProt Q04771, R206H); assay: ALK binding assay (LANTHASCREEN TR-FRET competitive binding, displacement of Kinase Tracer 178)
T2 construct: purchased Carna Bioscience or ThermoFisher 09-148 or PV6232
T2 sequence (Q04771 21-509 R206H): T1 sequence (Q04771 21-509 R206H)

[2] = read-out: Cell Line (Cell Assay IC50)
[3] = ALK2 R206H, LANTHASCREEN TR-FRET competitive binding, read-out: Binding Assay (IC50)

Row | IC50 (human ALK2 R206H; [2]) | IC50 [1, 3] | IC50 (human ALK2 R206H; Cell Line (Cell Assay IC50)) | IC50 [1] | SMILES
1 | < 100 nM | < 10 nM | – | – | CC(C)N1CCC[C@@H](c2ccc(-c3cc4c(N5CCN(C(=O)OCCC#N)CC5)ccnn4c3)cc2)C1 [Compound 810]
2 | 100 to 500 nM | < 10 nM | – | – | CC(C)N1CCC(c2ccc(-c3cc4c(N5CCN(C(=O)C6CCOC6)CC5)ccnn4c3)cc2)CC1 (stereo not shown) [Compound 812]
3 | – | – | < 100 nM | < 10 nM | CC1(C)CC(O)(c2ccc(-c3cc4c(N5CCN(C(=O)C6CC6)CC5)ccnn4c3)cc2)CC(C)(C)N1 [Compound 813]
4 | < 100 nM | < 10 nM | – | – | [2H]C1(OC(=O)N2CCN(c3ccnn4cc(-c5ccc(C6CCN(C(C)C)CC6)cc5)cc34)CC2)COC1 [Compound 814]
5 | < 100 nM | < 10 nM | – | – | CCO[C@]1(c2ccc(-c3cc4c(N5CCN(C(=O)OC6COC6)CC5)ccnn4c3)cc2)CCCNC1 [Compound 815]
6 | < 100 nM | < 10 nM | – | – | CCO[C@@]1(c2ccc(-c3cc4c(N5CCN(C(=O)OC6COC6)CC5)ccnn4c3)cc2)CCCNC1 [Compound 816]
7 | < 100 nM | < 10 nM | – | – | COC1(c2ccc(-c3cc4c(N5CCN(C(=O)NC(C)C)CC5)ccnn4c3)nc2)CCNC(C)(C)C1 (stereo not shown) [Compound 817]
8 | < 100 nM | < 10 nM | – | – | CCO[C@]1(c2ccc(-c3cc4c(N5CCN(C(=O)OC6COC6)CC5)ccnn4c3)nc2)CCCNC1 [Compound 818]
9 | < 100 nM | < 10 nM | – | – | CCO[C@@]1(c2ccc(-c3cc4c(N5CCN(C(=O)OC6COC6)CC5)ccnn4c3)nc2)CCCNC1 [Compound 819]
10 | < 100 nM | < 10 nM | – | – | CCOC1(c2ccc(-c3cc4c(N5CCN(C(=O)OC6COC6)CC5)ccnn4c3)nc2)CCOCC1 [Compound 821]
11 | < 100 nM | < 10 nM | – | – | CC(C)NC(=O)N1CCN(c2ccnn3cc(-c4ccc(C5(C(F)(F)F)CCNCC5)cc4)cc23)CC1 [Compound 823]
12 | 100 to 500 nM | < 10 nM | – | – | CC(C)N1CCC[C@@H](c2ccc(-c3cc4c(N5CCN(C(=O)O[C@@H]6CCOC6)CC5)ccnn4c3)cc2)C1 [Compound 825]
13 | < 100 nM | < 10 nM | – | – | CC(C)N1CCC[C@@H](c2ccc(-c3cc4c(N5CCN(C(=O)O[C@H]6CCOC6)CC5)ccnn4c3)cc2)C1 [Compound 826]
14 | 100 to 500 nM | < 10 nM | – | – | CC(C)N1CCC[C@@H](c2ccc(-c3cc4c(N5CCN(C(=O)OC6(C)COC6)CC5)ccnn4c3)cc2)C1 [Compound 827]
15 | 100 to 500 nM | < 10 nM | – | – | CC1OCC1OC(=O)N1CCN(c2ccnn3cc(-c4ccc([C@@H]5CCCN(C(C)C)C5)cc4)cc23)CC1 (stereo partly shown) [Compound 828]
16 | < 100 nM | < 10 nM | – | – | CC(C)N1CCC(c2ccc(-c3cc4c(N5CCN(C(=O)SC6COC6)CC5)ccnn4c3)cc2)CC1 [Compound 832]
17 | < 100 nM | < 10 nM | – | – | COC1(c2ccc(-c3cc4c(N5CCN(C(=O)OC6COC6)CC5)ccnn4c3)nc2)CCNC(C)(C)C1 (stereo not shown) [Compound 833]
18 | 100 to 500 nM | < 10 nM | – | – | CC(C)N1CCC(c2ccc(-c3cc4c(N5CCN(C(=O)OC(CO)CO)CC5)ccnn4c3)cc2)CC1 [Compound 836]
19 | 100 to 500 nM | < 10 nM | – | – | CC(C)N1CCC[C@@H](c2ccc(-c3cc4c(N5CCN(C(=O)OC(CO)CO)CC5)ccnn4c3)cc2)C1 [Compound 837]
20 | 100 to 500 nM | < 10 nM | – | – | CC(C)N1CCC(c2ccc(-c3cc4c(N5CCN(C(=O)Nc6ccccc6)CC5)ccnn4c3)cc2)CC1 [Compound 838]
21 | 100 to 500 nM | < 10 nM | – | – | CC(C)N1CCC[C@@H](c2ccc(-c3cc4c(N5CCN(C(=O)OC6(C#N)COC6)CC5)ccnn4c3)cc2)C1 [Compound 840]
22 | < 100 nM | < 10 nM | – | – | O=C(OC1COC1)N1CCN(c2ccnn3cc(-c4ccc(C5(C(F)(F)F)CCNCC5)cc4)cc23)CC1 [Compound 843]
23 | > 500 nM | < 10 nM | – | – | CC(C)N1CCC(c2ccc(-c3cc4c(N5CCN(C(=O)OC(CO)C(=O)O)CC5)ccnn4c3)cc2)CC1 (stereo not shown) [Compound 847, 3-hydroxy-2-(4-(6-(4-(1-isopropylpiperidin-4-yl)phenyl)pyrrolo[1,2-b]pyridazin-4-yl)piperazine-1-carbonyloxy)propanoic acid]
24 | < 100 nM | < 10 nM | – | – | CC(C)N1CC[C@H](OC(F)F)[C@@H](c2ccc(-c3cc4c(N5CCN(C(=O)C6CC6)CC5)ccnn4c3)cc2)C1 [Compound 848]
25 | < 100 nM | < 10 nM | – | – | CC(C)N1CC[C@@H](OC(F)F)[C@H](c2ccc(-c3cc4c(N5CCN(C(=O)C6CC6)CC5)ccnn4c3)cc2)C1 [Compound 849]
26 | < 100 nM | < 10 nM | – | – | COC1(c2ccc(-c3cc4c(N5CCN(C(=O)NC(C)C)CC5)ccnn4c3)nc2)CCN(C(C)CF)CC1 (stereo not shown) [Compound 850]
27 | 100 to 500 nM | < 10 nM | – | – | CC(C)N1CCC(c2ccc(-c3cc4c(N5CCN(C(=O)Nc6ccccc6F)CC5)ccnn4c3)cc2)CC1 [Compound 851]
28 | 100 to 500 nM | < 10 nM | – | – | CC(=O)N1CC(OC(=O)N2CCN(c3ccnn4cc(-c5ccc([C@@H]6CCCN(C(C)C)C6)cc5)cc34)CC2)C1 [Compound 853]

Row | SMILES | IC50 (human ALK2 R206H; [2]) | IC50 [1, 3] | IC50 (human ALK2 R206H; Cell Line (Cell Assay IC50)) | IC50 [1]
29 | CC(C)N1CCC(CO)(c2ccc(-c3cc4c(N5CCN(C(=O)C6CC6)CC5)ccnn4c3)cc2)CC1 [Compound 811] | < 100 nM | < 10 nM | – | –
30 | CCOC(=O)N1CCN(c2ccnn3cc(-c4ccc(C5(OC)CCN(C(C)C)CC5)cn4)cc23)CC1 [Compound 820] | < 100 nM | < 10 nM | – | –
31 | COCC1(c2ccc(-c3cc4c(N5CCN(C(=O)C6CC6)CC5)ccnn4c3)cc2)CCN(C(C)C)CC1 [Compound 824] | < 100 nM | < 10 nM | – | –
32 | COC1(c2ccc(-c3cc4c(N5CCN(C(=O)NC(C)C)CC5)ccnn4c3)cc2)CCN(C(C)C)CC1 [Compound 829] | < 100 nM | < 10 nM | – | –
33 | CCOC(=O)N1CCN(c2ccnn3cc(-c4ccc(C5(OCC)CCN(C(C)C)CC5)cc4)cc23)CC1 [Compound 831] | < 100 nM | < 10 nM | – | –
34 | CCOC(=O)N1CCN(c2ccnn3cc(-c4ccc(C5(OC)CCN(C6COC6)CC5)cn4)cc23)CC1 [Compound 834] | < 100 nM | < 10 nM | – | –
35 | CCOC(=O)N1CCN(c2ccnn3cc(-c4ccc(C5(OCC)CCN(C(C)C)CC5)cn4)cc23)CC1 [Compound 835] | < 100 nM | < 10 nM | – | –
36 | COC1(c2ccc(-c3cc4c(N5CCN(C(=O)C6CC6)CC5)ccnn4c3)c(C#N)c2)CCN(C(C)C)CC1 [Compound 839] | < 100 nM | < 10 nM | – | –
37 | COC1(c2ccc(-c3cc4c(N5CCN(C(=O)NC(C)C)CC5)ccnn4c3)cc2)CCN(C2COC2)CC1 [Compound 844] | < 100 nM | < 10 nM | – | –
38 | CCOC(=O)N1CCN(c2ccnn3cc(-c4ccc(C5(OCC)CCN(C6COC6)CC5)cn4)cc23)CC1 [Compound 845] | < 100 nM | < 10 nM | – | –
39 | COC1(c2ccc(-c3cc4c(N5CCN(C(=O)OC6COC6)CC5)ccnn4c3)nc2)CCN(C(C)C)CC1 [Compound 846] | < 100 nM | < 10 nM | – | –
40 | COC1(c2ccc(-c3cc4c(N5CCN(C(=O)NC(C)C)CC5)ccnn4c3)c(C#N)c2)CCN(C(C)C)CC1 [Compound 852] | < 100 nM | < 10 nM | – | –
41 | CCOC1(c2ccc(-c3cc4c(N5CCN(C(=O)OCCC#N)CC5)ccnn4c3)nc2)CCN(C(C)C)CC1 [Compound 854] | < 100 nM | < 10 nM | – | –
